Values quoted from earlier work as cited in patent US20150140121A1, “Compositions and Methods for Tight Junction Modulation” (Lankenau Institute for Medical Research, priority 2012, published 2015).

How the values were obtained:
claudin 5 = conditions: berberine; CACO-2 and HT-29/B6 cell layers; cited from earlier work
occludin = conditions: CACO-2 and HT-29/B6 cell layers, cited from earlier work
claudin-1 = conditions: berberine; CACO-2 and HT-29/B6 cell layers; cited from earlier work
[1] = tested on: colonc epithelial (CACO-2 and HT-29/B6) cell layers; conditions: berberine 50 micromolar, Li et al. 2010, Amasheh et al. 2010; cited from earlier work
claudin 3 = conditions: berberine; CACO-2 and HT-29/B6 cell layers; cited from earlier work
claudin 2 = conditions: berberine; CACO-2 and HT-29/B6 cell layers; cited from earlier work
claudin-4 = conditions: berberine; CACO-2 and HT-29/B6 cell layers; cited from earlier work
claudin 7 = conditions: berberine; CACO-2 and HT-29/B6 cell layers; cited from earlier work

Structure (SMILES): COc1ccc2cc3[n+](cc2c1OC)CCc1cc2c(cc1-3)OCO2 [berberine]
- amount of claudin 5 (claudin 5): no effect
- occludin redistribution that ensues from proinflammatory cytokine exposure (occludin; berberine 50 micromolar): prevents
- amount of occludin (occludin; berberine): no effect
- cellular amount of claudin 1 (claudin-1): Strong effects
- TJ leakiness that ensues from proinflammatory cytokine exposure [1]: prevents
- amount of claudin 3 (claudin 3): no effect
- cellular amount of claudin 2 (claudin 2): Strong effects
- amount of claudin 4 (claudin-4): no effect
- amount of claudin 7 (claudin 7): no effect
